Among the data in the METLIN SMRT retention time set (Domingo-Almenara et al. 2019) are RP-LC retention time values, retold here.

The nature of this data set: gradient 5% acetonitrile 3 min, to 50% in 2 min, to 85% in 15 min, held 3 min, 100 µL/min. The note with it: column: Zorbax Extend-C18 2.1 x 50 mm; eluents: water / acetonitrile, 0.1% formic acid. Summed up:
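In both positive and negative ionization mode, a quadrupole time-of-flight mass spectrometer coupled to HPLC analyzed pure standards run in mixtures of ~100 molecules. The Zorbax Extend-C18 column (2.1 × 50 mm, 1.8 μm) was operated at 100 μL/min with water and acetonitrile, each containing 0.1% formic acid. The dead volume was 40 μL and the dwell volume 900 μL. Retention time came from adduct peaks that were computationally picked and individually inspected by hand.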
`CCCNC(=O)N1CCCN(C2=NS(=O)(=O)C(c3ccc(Cl)cc3)=C2C)CC1` came in with an RP-LC retention time of 794 s.

Molecule `O=C(CN1CN(c2ccccc2)c2ncccc2S1(=O)=O)Nc1cccc(Cl)c1` displayed an RP-LC retention time of 983 s.

The molecule `CC1(C(=O)NCc2ccc(F)cc2)Cn2cnc(C(=O)NCc3ccccc3F)c2C(=O)N1C1CC1` (centres undefined) had an RP-LC retention time of 751 s.

The molecule `Cc1noc2ncn(CC(=O)NCCc3ccccc3Cl)c(=O)c12` returned an RP-LC retention time of 792 s.

Consider `CCOc1ccc(-c2nc(NC(=O)c3c(F)cccc3F)sc2C)cc1`, for which the RP-LC retention time was found to be 1110 s.

Consider `CN1CCN(C(=O)C2CCCN(c3ncnc4c3nc3n4CCCCC3)C2)CC1` (centres undefined), for which the RP-LC retention time worked out at 570 s.

With `O=C(c1ccc(Cl)cc1)N1CCN(c2nc(CN3CCOCC3)cs2)CC1`, the RP-LC retention time is 638 s.

`CCCN1C(=O)c2cc(C(=O)NCc3ccccc3F)nn2CC1(C)C(=O)NC1CCCC1` (centres undefined) gave an RP-LC retention time of 836 s.

In turn, `COCCCNC(=O)N1CCCCCC1c1ccc(C)cc1` (centres undefined) returned an RP-LC retention time of 939 s.

`COc1ccc(NC(=O)Cn2c(=O)n(-c3ccc(F)cc3)c(=O)c3c2cc(C)n3C)cc1OC` showed an RP-LC retention time of 739 s.

For the molecule `C=Cc1ccc(Cn2cc(S(=O)(=O)N3CCOCC3)ccc2=O)cc1`, the RP-LC retention time was 825 s.

`O=c1n(Cc2ccc(F)cc2Cl)nc2ccc(S(=O)(=O)N3CCCC3)cn12` returned an RP-LC retention time of 922 s.

Take `Cc1ccc(-n2cc3c(c(C(=O)N4CCN(c5ccccn5)CC4)c2=O)CC(C)(C)CC3=O)cc1`: the RP-LC retention time is 659 s.

With `O=C(CSc1nnc2scc(-c3ccc(Cl)cc3)n12)Nc1ccccc1F`, the RP-LC retention time was 839 s.

For the molecule `Cc1cc(=O)n(CC(=O)Nc2cc(F)ccc2F)c(N2CCCCC2)n1`, the RP-LC retention time was 708 s.

`CN(C)S(=O)(=O)c1ccc2c(c1)N(CC(=O)NCc1ccccn1)C(=O)C1CCCCN21` (centres undefined): the RP-LC retention time turned out to be 646 s.

As to `Cc1cc(C(=O)NCCN2CCN(c3cccc(C)c3C)CC2)n(-c2ccccc2)n1`, the RP-LC retention time amounted to 705 s.

Consider `CCOc1ccc(NC(=O)C2CCCN(c3nc4ccccc4nc3C(F)(F)F)C2)cc1` (centres undefined), for which the RP-LC retention time is 1210 s.

Molecule `Cn1c(Cn2c(=O)sc3ccccc32)nnc1SCC(=O)NCC1CCCO1` (centres undefined) registered an RP-LC retention time of 608 s.

`CN1CCn2ccnc2C12CCN(C(=O)Nc1ccccc1Cl)CC2` showed an RP-LC retention time of 576 s.

As for `O=C(c1c(F)cccc1F)N1CCN(S(=O)(=O)C2CC2)CC1`, the RP-LC retention time worked out at 691 s.

In turn, `O=C(Cc1ccsc1)Nc1cnc(-c2ccccc2)nc1` yielded an RP-LC retention time of 890 s.

Turning to `COc1cccc(CNC(=O)C2CCN(c3nnc4c(Cl)cccn34)CC2)c1`, the RP-LC retention time came out at 683 s.

In the case of `Cc1ccc(C(=O)Nc2ccc3c(c2)Sc2ncccc2C(=O)N3C(C)C)cc1F`, the RP-LC retention time is 986 s.

With `Cc1nc(CSc2ncnc3sc(C)c(C)c23)cs1`, the RP-LC retention time was found to be 988 s.

`CCn1c(=O)c(N2CCN(C(=O)NCCc3ccccc3)CC2)nc2ccccc21`: the RP-LC retention time came out at 902 s.

As to `COCc1noc([C@@H]2CN(C(=O)c3noc(C)c3COC)C[C@H]2C(N)=O)n1`, the RP-LC retention time was found to be 625 s.

Take `CCOc1cccc(CNc2nc3ccncc3n(CC)c2=O)c1`: the RP-LC retention time was 665 s.

The molecule `CNC(=O)[C@@H]1CN(S(=O)(=O)c2cnc[nH]2)C[C@H]1c1nc(C)no1` came in with an RP-LC retention time of 568 s.

`CCOc1ccc(NC(=O)N2CCC3(CC2)NC(=O)c2ccc(Cl)cc2N3CC)cc1` yielded an RP-LC retention time of 874 s.

`NS(=O)(=O)c1ccc(NC(=O)c2ccc(S(=O)(=O)c3ccc(Cl)cc3)s2)cc1` came in with an RP-LC retention time of 877 s.

Molecule `O=C(NCCc1ccccn1)C1CCCN(c2nnc3ccc(C(F)(F)F)cn23)C1` (centres undefined) registered an RP-LC retention time of 583 s.

Turning to `CCOC(=O)c1cc(C)nc2c1c(=O)n(Cc1ccccc1)c(=O)n2C`, the RP-LC retention time came out at 879 s.

For the molecule `CCOC(=O)c1[nH]c(C)c(CCC(=O)N2CCC(C(=O)NCCCN3CCCCC3)CC2)c1C`, the RP-LC retention time amounted to 607 s.

Consider `CCc1nc2ccccc2c(=O)n1Cc1noc(-c2cccc(OC)c2)n1`, for which the RP-LC retention time turned out to be 998 s.

The molecule `Cn1nc(-c2nnc(-c3ccccc3F)o2)c2c1CCN(S(=O)(=O)c1ccc(F)cc1)C2` came in with an RP-LC retention time of 903 s.

As for `Cc1cc(C)n2nc(CN(C(=O)c3ccco3)c3ccc(F)cc3)nc2n1`, the RP-LC retention time came to 715 s.

`CCc1ccc(NC(=O)c2ccc(=O)n(CCN3CCOCC3)c2)cc1`: the RP-LC retention time is 637 s.

With `CCc1ccccc1NC(=O)Cn1nc2cc(C)nc(Nc3ccc(F)cc3)n2c1=O`, the RP-LC retention time came out at 1040 s.

`O=C(c1ccsc1)N1CCn2c(nnc2-c2ccccc2)C1` showed an RP-LC retention time of 611 s.

Regarding `Cc1nnc(N2CCC(C(=O)NCC3CCCO3)CC2)c2nn(-c3ccccc3)c(C)c12` (centres undefined), the RP-LC retention time worked out at 632 s.

Take `CCOC(=O)c1nc(N2CCN(C3CCCCC3)CC2)c2ccccc2n1`: the RP-LC retention time is 614 s.

With `COC(=O)C1=CN(c2cc(OC)cc(OC)c2)c2ccccc2S1(=O)=O`, the RP-LC retention time was 848 s.

`Cc1nn(C)cc1C(=O)Nc1nc2ccccc2[nH]1` came in with an RP-LC retention time of 537 s.

Take `CCc1nc(-c2csc(S(=O)(=O)N3CCC(C(=O)Nc4ccc(Cl)cc4)CC3)c2)no1`: the RP-LC retention time is 1070 s.

`Cn1c(C(=O)NCCN2CCOCC2)cc2c(=O)oc3ccccc3c21` had an RP-LC retention time of 603 s.

Molecule `CCCN(CCC)CCCNC(=O)C1CCCN(c2ncc(-c3ccccc3)cn2)C1` (centres undefined) had an RP-LC retention time of 719 s.

As for `Cc1ccc(C2Cn3nnc(C(=O)NCC4CC4)c3CO2)cc1` (centres undefined), the RP-LC retention time turned out to be 873 s.

As to `Cc1cccc(CC(=O)NCCSc2ncc(-c3ccccc3)[nH]2)c1`, the RP-LC retention time came out at 607 s.

`O=C1NCCCCCCN(C(=O)c2cc(CN3CCOCC3)on2)[C@H]2CCCC[C@@H]12` had an RP-LC retention time of 621 s.

Consider `O=C(Cn1c(=O)cc(C(=O)N2CCCC2)c2ccccc21)Nc1ccccc1Cl`, for which the RP-LC retention time is 714 s.

The molecule `Cc1ccc(-n2ncc3c(N4CCN(C)CC4)ncnc32)cc1Cl` showed an RP-LC retention time of 607 s.

For `CCOc1ccc(OCC)c(NC(=O)C(C)Oc2ccc(=O)n(-c3ccc(F)cc3)n2)c1` (centres undefined), the RP-LC retention time is 953 s.

The molecule `Cn1c(C2CCN(C(=O)c3cccc(Cl)c3)C2)nc2ccncc21` (centres undefined) had an RP-LC retention time of 554 s.

In turn, `Brc1ccc(CSc2nnc3ccc(-c4cccnc4)nn23)cc1` yielded an RP-LC retention time of 723 s.

Take `Cn1c(=O)n(CC(=O)O)c(=O)c2c1nc1n2CCCN1c1ccc(Cl)cc1`: the RP-LC retention time came out at 749 s.

Turning to `COCc1nncn1C1CCN(C(=O)c2cc(F)ccc2Cl)CC1`, the RP-LC retention time amounted to 635 s.

For `CC(C)c1ccc(OCC(=O)Nc2cnn(C)c(=O)c2N2CCOCC2)cc1`, the RP-LC retention time amounted to 952 s.

On to `Nc1nc(CN2CCN(c3ncccn3)CC2)nc(N2CCCCC2)n1`, for which the RP-LC retention time is 611 s.
